{"source": "patent US20050170052A1", "about": "“Water and feed preservative for animal uses” (priority 2004, published 2005)", "key": {"E. coli [1]": {"system": "E. coli", "experiment": "Biocidal effect of terpenes in organic preservative-free apple juice (Example 7)", "format": "cell-based", "conditions": "250 ppm in unpasteurized apple juice, E. coli added, one week room temperature", "experimental": "To 100 ml of unpasteurized apple juice was added different concentration of terpenes varying from 0 to 250 ppm. After mixing, 0.5 ml of 1×10^6 cfu E. coli was added to each juice/terpene mixture and incubated at room temperature for a week. After incubation, 0.1 ml of each of the solutions was plated onto nutrient agar and incubated for 18 hours at 37° C. Results are expressed as cfu/ml and percent reduction as compared to control."}, "[2]": {"format": "physicochemical", "conditions": "buffer, 1000 ppm", "experimental": "(§1) A solution containing 1000 ppm citral in distilled water was homogenized with a high speed homogenizer. This solution was stored in a beaker covered with porous paper for a week. The concentration of citral remaining after a week was determined by a gas chromatography. A standard curve was prepared with reagent grade citral to which b-ionone was used as internal standard. At the beginning of the study and after a week the concentration of citral was determined by plotting it on the standard curve."}, "[3]": {"format": "physicochemical", "conditions": "buffer, 1000 ppm", "experimental": "as §1, with “closed glass bottle” for “beaker covered with porous paper”, “four weeks. Concentration” for “a week. The concentration”, “remaining” for “remaining after a week”, “weekly” for “after a week”", "remark": "listed apart in the source"}, "E. coli [4]": {"system": "E. coli", "conditions": "cited from earlier work"}}, "note": "Where two headings read alike, the source gives them in different places.", "data": [{"smiles": "CC(=O)/C=C/C1=C(C)CCCC1(C)C", "note": "[B-ionone]", "values": [{"measurement": "% reduction", "setting": "E. coli [1]", "value": 100, "unit": "%"}, {"measurement": "cfu/ml", "setting": "E. coli [1]", "value": 0, "unit": "cfu/ml"}]}, {"smiles": "CC(C)=CCCC(C)=CC=O", "note": "[Citral, citral]", "values": [{"measurement": "Percentage of citral remaining, Week 1", "setting": "[2]; 1 week", "value": 21.5, "unit": "%"}, {"measurement": "Percentage of citral remaining, Day 1", "setting": "[2]; 1 day", "value": 100, "unit": "%"}, {"measurement": "Percentage of citral remaining, Week 1", "setting": "[3]; 1 week", "value": 32, "unit": "%"}, {"measurement": "Percentage of citral remaining, Week 2", "setting": "[3]; 2 week", "value": 27, "unit": "%"}, {"measurement": "Percentage of citral remaining, Week 4", "setting": "[3]; 4 week", "value": 22, "unit": "%"}, {"measurement": "Percentage of citral remaining, Day 1", "setting": "[3]; 1 day", "value": 100, "unit": "%"}, {"measurement": "% reduction", "setting": "E. coli [1]", "value": 100, "unit": "%"}, {"measurement": "cfu/ml", "setting": "E. coli [1]", "value": 0, "unit": "cfu/ml"}, {"measurement": "citral concentration in growth media that reduced the concentration of E. coli", "setting": "E. coli [4]", "value": "more than 0.01%"}, {"measurement": "citral concentration with bactericidal effect", "setting": "E. coli [4]; growth media", "value": 0.08, "unit": "%"}]}]}
